Here are results for 15 compounds from patent publication US11464770B2, “Anticancer pharmaceutical composition” (NATIONAL CANCER CENTER, priority 2016, dated 2022).

As a reminder, the IC50 is the concentration that gives 50% inhibition.

This experiment deals with pancreatic cancer cell lines (e.g. MIA PaCa-2). In words: Cell based assay, cell viability (CellTiter-Glo), pancreatic cancer cell lines. The settings on record: Homo sapiens. In a few lines:
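Luminescent ATP assay quantified surviving cells after three days of treatment. Compound was applied at final concentrations of 0 to 2 μM, starting 24 h after cells were seeded.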
Background: ATP-based viability assays read luminescence as a measure of living cells.

Setting [1] is: pancreatic cancer cell line AsPC-1, 72 hours, read-out: IC50, AsPC-1.
Where [2] appears, read: pancreatic cancer cell line BxPC-3, 72 hours, read-out: IC50, BxPC-3.
Setting [3] is: pancreatic cancer cell line CFPAC-1, 72 hours, read-out: IC50, CFPAC-1.
The mark [4] stands for this setting: pancreatic cancer cell line Capan-1, 72 hours, read-out: IC50, Capan-1.
Setting [5] is: pancreatic cancer cell line Capan-2, 72 hours, read-out: IC50, Capan-2.
The mark [6] stands for this setting: pancreatic cancer cell line MIA PaCa-2, 72 hours, read-out: IC50, MIA PaCa-2.
Where [7] appears, read: pancreatic cancer cell line PANC-1, 72 hours, read-out: IC50, PANC-1.

Structures are written as SMILES. Like-named read-outs stand apart in the source and are kept apart here.

For `COc1cccc2[nH]c(SCc3ccc(S(F)(F)(F)(F)F)cc3)c(C(C)=O)c(=O)c12` [Compound 92, 3-acetyl-5-methoxy-2-((4-(pentafluoro--sulfanyl)benzyl)thio)quinolin-4(1H)-one], the IC50 reads like this: under setting [1], over 2000 nM; under setting [2], over 2000 nM; under setting [3], over 10000 nM; under setting [4], over 2000 nM; under setting [5], over 2000 nM; under setting [6], over 2000 nM. Besides, under setting [7], the IC50 is over 2000 nM.

In the case of `COc1cccc2[nH]c([S+]([O-])Cc3ccc(S(F)(F)(F)(F)F)cc3)c(C(C)=O)c(=O)c12` (stereo not drawn) [Compound 93, 3-acetyl-5-methoxy-2-((4-(pentafluoro--sulfanyl)benzyl)sulfinyl)quinolin-4(1H)-one], the concentration for half-maximal inhibition (IC50) under setting [1] was over 2000 nM; the IC50 under setting [2] is over 2000 nM; the IC50 under setting [3] was over 10000 nM; the half-maximal inhibitory concentration (IC50) under setting [4] was over 2000 nM; the IC50 under setting [5] was over 2000 nM; the IC50 under setting [6] is over 2000 nM. The IC50 under setting [7] is over 2000 nM.

As to `COc1cccc2[nH]c([S+]([O-])Cc3cc(C)on3)c(C(C)=O)c(=O)c12` (stereo not drawn) [Compound 94, 3-acetyl-5-methoxy-2-(((5-methylisoxazol-3-yl)methyl)sulfinyl)quinolin-4(1H)-one], the IC50 by setting is: under setting [1], over 2000 nM; under setting [2], over 2000 nM; under setting [3], over 10000 nM; under setting [4], over 2000 nM; under setting [5], over 2000 nM; under setting [6], 1650 nM. In addition, the IC50 under setting [7] was over 2000 nM.

For the compound `Cc1cc(C[S+]([O-])c2[nH]c3c(Br)ccc(Cl)c3c(=O)c2C(=O)C2CC2)no1` (stereo not drawn) [Compound 96, 8-bromo-5-chloro-3-(cyclopropanecarbonyl)-2-(((5-methylisoxazol-3-yl)methyl)sulfinyl)quinolin-4(1H)-one], the IC50 under setting [1] is over 2000 nM; the concentration for half-maximal inhibition (IC50) under setting [2] is over 2000 nM; the IC50 under setting [3] was over 10000 nM; the IC50 under setting [4] is over 2000 nM; the IC50 under setting [5] is over 2000 nM; the half-maximal inhibitory concentration (IC50) under setting [6] came to 1140 nM. Also, under setting [7], the IC50 was over 2000 nM.

With `Cc1cc(C[S+]([O-])c2[nH]c3c(Cl)ccc(Cl)c3c(=O)c2C(=O)C2CC2)no1` (stereo not drawn) [Compound 97, 5,8-dichloro-3-(cyclopropanecarbonyl)-2-(((5-methylisoxazol-3-yl)methyl)sulfinyl)quinolin-4(1H)-one], the half-inhibitory concentration (IC50) is 1740 nM under setting [1]; over 2000 nM under setting [2]; over 10000 nM under setting [3]; 1520 nM under setting [4]; over 2000 nM under setting [5]; 860 nM under setting [6]. The IC50 under setting [7] was over 2000 nM.

Take `CC(=O)c1c([S+]([O-])Cc2ccc(C#N)s2)[nH]c2c(Br)ccc(Cl)c2c1=O` (stereo not drawn) [Compound 98, 5-(((3-acetyl-8-bromo-5-chloro-4-oxo-1,4-dihydroquinolin-2-yl)sulfinyl)methyl)thiophene-2-carbonitrile]: the half-inhibitory concentration (IC50) runs as follows: under setting [1], over 2000 nM; under setting [2], over 2000 nM; under setting [3], over 10000 nM; under setting [4], over 2000 nM; under setting [5], over 2000 nM; under setting [6], 1270 nM. Under setting [7], the IC50 was over 2000 nM.

On to `CC(=O)c1c([S+]([O-])Cc2ccc(-n3cccn3)nc2)[nH]c2c(Br)ccc(Cl)c2c1=O` (stereo not drawn) [Compound 99, 2-(((6-(1H-pyrazol-1-yl)pyridin-3-yl)methyl)sulfinyl)-3-acetyl-8-bromo-5-chloroquinolin-4(1H)-one], for which the IC50 was 1490 nM under setting [1]; over 2000 nM under setting [2]; over 10000 nM under setting [3]; 1990 nM under setting [4]; over 2000 nM under setting [5]; 720 nM under setting [6]. Further, the half-inhibitory concentration (IC50) under setting [7] was over 2000 nM.

Consider `CC(=O)c1c([S+]([O-])Cc2ccc(N)nc2)[nH]c2c(Br)ccc(Cl)c2c1=O` (stereo not drawn) [Compound 100, 3-acetyl-2-(((6-aminopyridin-3-yl)methyl)sulfinyl)-8-bromo-5-chloroquinolin-4(1H)-one], for which the half-maximal inhibitory concentration (IC50) is over 2000 nM under setting [1]; over 2000 nM under setting [2]; over 10000 nM under setting [3]; over 2000 nM under setting [4]; over 2000 nM under setting [5]; over 2000 nM under setting [6]. Also, the IC50 under setting [7] is over 2000 nM.

Take `O=C(c1c([S+]([O-])Cc2ccc(SC(F)(F)F)cc2)[nH]c2c(Br)ccc(Cl)c2c1=O)C1CC1` (stereo not drawn) [Compound 101, 8-bromo-5-chloro-3-(cyclopropanecarbonyl)-2-((4-((trifluoromethyl)thio)benzyl)sulfinyl)quinolin-4(1H)-one]: the IC50 under setting [1] was over 2000 nM; the IC50 under setting [2] is over 2000 nM; the IC50 under setting [3] was over 10000 nM; the half-inhibitory concentration (IC50) under setting [4] was over 2000 nM; the IC50 under setting [5] was over 2000 nM; the IC50 under setting [6] was determined as 1830 nM. Besides, under setting [7], the IC50 was over 2000 nM.

Turning to `CC(=O)c1c([S+]([O-])Cc2ccc(C(F)(F)F)nc2C)[nH]c2c(Br)ccc(Cl)c2c1=O` (stereo not drawn) [Compound 102, 3-acetyl-8-bromo-5-chloro-2-(((2-methyl-6-(trifluoromethyl)pyridin-3-yl)methyl)sulfinyl)quinolin-4(1H)-one], the IC50 is 1540 nM under setting [1]; over 2000 nM under setting [2]; over 10000 nM under setting [3]; 1660 nM under setting [4]; over 2000 nM under setting [5]; 690 nM under setting [6]. Under setting [7], the IC50 is over 2000 nM.

Regarding `CC(=O)c1c([S+]([O-])Cc2ccc(NS(C)(=O)=O)cc2)[nH]c2c(Br)ccc(Cl)c2c1=O` (stereo not drawn) [Compound 103, N-(4-(((3-acetyl-8-bromo-5-chloro-4-oxo-1,4-dihydroquinolin-2-yl)sulfinyl)methyl)phenyl)methane-sulfonamide], the IC50 by setting is: under setting [1], over 2000 nM; under setting [2], over 2000 nM; under setting [3], over 10000 nM; under setting [4], over 2000 nM; under setting [5], over 2000 nM; under setting [6], over 2000 nM. For the same compound, the IC50 under setting [7] was over 2000 nM.

Turning to `CC(=O)c1c([S+]([O-])Cc2ccc(Cl)nc2)[nH]c2c(Br)ccc(Cl)c2c1=O` (stereo not drawn) [Compound 104, 3-acetyl-8-bromo-5-chloro-2-(((6-chloropyridin-3-yl)methyl)sulfinyl)quinolin-4(1H)-one], the IC50 is over 2000 nM under setting [1]; over 2000 nM under setting [2]; over 10000 nM under setting [3]; 1590 nM under setting [4]; over 2000 nM under setting [5]; 790 nM under setting [6]. Besides, the IC50 under setting [7] was over 2000 nM.

On to `COCCNc1ccc(C[S+]([O-])c2[nH]c3c(Br)ccc(Cl)c3c(=O)c2C(C)=O)cn1` (stereo not drawn) [Compound 105, 3-acetyl-8-bromo-5-chloro-2-(((6-((2-methoxyethyl)amino)pyridin-3-yl)methyl)sulfinyl)quinolin-4(1H)-one], for which the IC50 reads like this: under setting [1], over 2000 nM; under setting [2], over 2000 nM; under setting [3], over 10000 nM; under setting [4], over 2000 nM; under setting [5], over 2000 nM; under setting [6], over 2000 nM. In addition, the IC50 under setting [7] was over 2000 nM.

Turning to `CC(=O)c1c([S+]([O-])Cc2nonc2C)[nH]c2c(Br)ccc(Cl)c2c1=O` (stereo not drawn) [Compound 106, 3-acetyl-8-bromo-5-chloro-2-(((4-methyl-1,2,5-oxadiazol-3-yl)methyl)sulfinyl)quinolin-4(1H)-one], the IC50 was over 2000 nM under setting [1]; over 2000 nM under setting [2]; over 10000 nM under setting [3]; over 2000 nM under setting [4]; over 2000 nM under setting [5]; over 2000 nM under setting [6]. For the same compound, the IC50 under setting [7] was over 2000 nM.

Regarding `CC(=O)c1c([S+]([O-])Cc2cnc3[nH]ccc3c2)[nH]c2c(Br)ccc(Cl)c2c1=O` (stereo not drawn) [Compound 107, 2-(((1H-pyrrolo[2,3-b]pyridin-5-yl)methyl)sulfinyl)-3-acetyl-8-bromo-5-chloroquinolin-4(1H)-one], the IC50 was over 2000 nM under setting [1]; over 2000 nM under setting [2]; over 10000 nM under setting [3]; over 2000 nM under setting [4]; over 2000 nM under setting [5]; over 2000 nM under setting [6]. The IC50 under setting [7] was over 2000 nM.
